As usually defined, the EC50 is the concentration at which the effect is half-maximal. High values mean lower potency in that assay, low ones higher potency in that assay.

Here are results for one molecule from paper PMC2749030, “New stably transfected bioluminescent cells expressing FLAG epitope-tagged estrogen receptors to study their chromatin recruitment” (BMC Biotechnology, 2009).

The structures appear in SMILES notation.

One assay deals with T1, FLAG-ERα (Homo sapiens, UniProt P03372).
T1 construct: expressed in transfected cells; pSG5-puro plasmid
T1 sequence (P03372 1-595): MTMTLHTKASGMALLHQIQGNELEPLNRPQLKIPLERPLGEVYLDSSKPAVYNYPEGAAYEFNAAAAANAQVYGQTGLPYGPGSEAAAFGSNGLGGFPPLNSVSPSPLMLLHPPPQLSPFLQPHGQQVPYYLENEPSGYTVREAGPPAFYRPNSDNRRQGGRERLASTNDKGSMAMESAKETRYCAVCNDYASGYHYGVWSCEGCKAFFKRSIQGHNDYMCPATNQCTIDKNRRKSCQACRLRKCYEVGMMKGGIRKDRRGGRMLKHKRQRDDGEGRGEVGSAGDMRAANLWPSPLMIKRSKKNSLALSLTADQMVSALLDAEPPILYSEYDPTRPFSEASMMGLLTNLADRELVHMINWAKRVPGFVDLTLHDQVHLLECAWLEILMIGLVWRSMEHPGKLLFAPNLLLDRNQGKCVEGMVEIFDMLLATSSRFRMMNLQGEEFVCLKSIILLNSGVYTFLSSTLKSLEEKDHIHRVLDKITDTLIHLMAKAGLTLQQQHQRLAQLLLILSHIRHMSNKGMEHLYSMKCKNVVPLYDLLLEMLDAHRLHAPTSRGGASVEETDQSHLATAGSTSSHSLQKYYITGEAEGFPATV
The experiment in a line: ERE-driven luciferase transactivation assay in HELN-Fα cells. Type of assay: cell-based. The following applies: 16 hr stimulation, luciferase activity, 100% = 10 nM E2. As for the experimental part:
(§1) Cells were incubated with compounds for 16 h. At the end of the incubation, effector containing medium was removed and replaced by 0.3 mM luciferin containing 6% DCC-FCS. At this concentration, luciferin diffuses into the cell and produces a stable luminescent signal. The 96-well plate was then introduced in a microplate luminometer (Microbeta, Wallac) and intact living cell luminescence measured for 2 s. EC50 values were evaluated using Graph-Pad Prism Statistics software (version 4.0; Graph-Pad Software Inc., San Diego, CA, USA).

Another assay deals with T2, FLAG-ERβ (Homo sapiens, UniProt Q92731).
T2 construct: FLAG-ERβ (full length version of 530 amino acids); expressed in transfected cells; pSG5-puro plasmid
T2 sequence (Q92731 whole entry): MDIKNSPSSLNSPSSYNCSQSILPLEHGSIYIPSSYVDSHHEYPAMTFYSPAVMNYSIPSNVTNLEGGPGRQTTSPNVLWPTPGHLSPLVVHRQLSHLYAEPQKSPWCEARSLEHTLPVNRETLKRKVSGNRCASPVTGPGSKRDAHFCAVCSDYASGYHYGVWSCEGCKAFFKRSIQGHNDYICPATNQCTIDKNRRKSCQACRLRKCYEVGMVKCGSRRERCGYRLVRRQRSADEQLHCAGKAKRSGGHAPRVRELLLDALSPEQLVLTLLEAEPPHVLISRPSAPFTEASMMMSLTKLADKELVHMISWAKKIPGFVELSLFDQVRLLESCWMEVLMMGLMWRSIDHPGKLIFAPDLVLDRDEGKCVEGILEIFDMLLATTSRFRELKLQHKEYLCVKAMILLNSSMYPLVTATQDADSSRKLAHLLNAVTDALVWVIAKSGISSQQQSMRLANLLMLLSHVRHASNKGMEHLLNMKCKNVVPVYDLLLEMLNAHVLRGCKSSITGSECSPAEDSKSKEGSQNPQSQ
The experiment in a line: ERE-driven luciferase transactivation assay in HELN-Fβ cells. Type of assay: cell-based. The following applies: HELN-Fβ versus HELN-Fα cells, 16 hr. As to the method:
as §1

The next assay deals with ERα. On the set-up: method as in PMID 11708925, PMID 11150164. The following applies: ERα selective agonist; RBA = 100 for estradiol; cited from earlier work.

Consider `CCCc1c(-c2ccc(O)cc2)nn(-c2ccc(O)cc2)c1-c1ccc(O)cc1` [PPT, Propylpyrazoletriol], for which the EC50 at FLAG-ERα is 0.15 nM. For the same molecule, the “activation of ERβ (in words)” value at FLAG-ERβ is given as “activated only ERα”. The “relative binding activity (RBA)” value in the assay with ERα is on record as 49.
